Values joined by “and” are separate entries in the source; they are usually repeats but may differ in a detail not shown here. Equal entries are not always repeated. Structures can show the parent of a compound that is named as a salt. Where two headings read alike, the source gives them in different places. Marks after values point to notes of the source that are not given here.
Assays:
P. falciparum Dd2-2D4 = assay: P. falciparum asexual blood stage growth assay, wild type; conditions: for EC50: read-out: Dd2 (EC50 [nM]) wt; for percent growth at 10 μM: Dd2 wt, shown because compound had <50% growth inhibition
HsProRS = molecular target: T1, HsProRS (Homo sapiens, UniProt P07814); assay: TR-FRET ProRS ligand displacement / saturation binding assay, HsProRS; conditions: for fold less tightly bound to HT-HsProRS relative to HT-PfcProRS: tracer KD ratio
T1 construct: made in house; host or cells: SoluBL-21 E. coli
T1 sequence (P07814 996-1512): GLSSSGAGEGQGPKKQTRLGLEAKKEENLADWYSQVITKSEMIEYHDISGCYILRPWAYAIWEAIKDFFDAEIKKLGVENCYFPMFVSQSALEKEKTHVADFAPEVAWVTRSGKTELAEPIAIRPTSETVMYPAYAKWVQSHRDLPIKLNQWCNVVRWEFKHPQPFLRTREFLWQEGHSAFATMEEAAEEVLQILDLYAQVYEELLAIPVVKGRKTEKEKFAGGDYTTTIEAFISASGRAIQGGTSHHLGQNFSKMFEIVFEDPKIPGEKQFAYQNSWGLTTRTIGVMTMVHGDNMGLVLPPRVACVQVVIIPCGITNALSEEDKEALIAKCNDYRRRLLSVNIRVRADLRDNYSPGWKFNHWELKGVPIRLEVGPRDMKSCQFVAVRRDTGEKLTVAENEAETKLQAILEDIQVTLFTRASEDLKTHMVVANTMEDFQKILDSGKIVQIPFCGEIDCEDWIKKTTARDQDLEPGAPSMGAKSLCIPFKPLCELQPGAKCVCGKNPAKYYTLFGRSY
Method: (§1) A stock solution containing CoraFluor-1-Halo-labeled HT-PfcProRS or CoraFluor-1-Halo-labeled HT-HsProRS at the concentration specified for each experiment was prepared in assay buffer (50 mM Tris, pH 7.5, 20 mM KCl, 10 mM MgCl2, 0.05% Tween-20, 1 mM dithiothreitol, and 0.5 mg/mL BSA). […] Plates were mixed on an Ika MTS 2/4 Digital Microtiter Shaker at 750 rpm for 2 min, centrifuged at 1,000×g at 25° C. for 1 min. and allowed to equilibrate at room temperature for 2 h before TR-FRET measurements were taken. […] PRISM 9 (GraphPad) was used to perform non-linear regression analysis (one site—specific binding), plot dose-response curves, and calculate KD values.
(§2) A Multidrop Combi Reagent Dispenser (ThermoFisher Scientific) was used to dispense 20 μL of 2× protein solution into each well. […] Plates were mixed on an Ika MTS 2/4 Digital Microtiter Shaker at 750 rpm for 2 min, centrifuged at 1,000×g at 25° C. for I min, and allowed to equilibrate for 2 h at room temperature before TR-FRET measurements were taken.
(§3) PRISM 9 (GraphPad) was used to perform non-linear regression analysis (log(inhibitor) vs. response—Variable slope (four parameters)), plot dose-response curves, and calculate iC50 values.
(§4) Test compounds were dispensed in duplicate, triplicate, or sextuplicate dose-response format using a D300 digital dispenser (Hewlett Packard). […] Plates were mixed on an Ika MTS 2/4 Digital Microtiter Shaker at 750 rpm for 2 min, centrifuged at 1,000×g at 25° C. for 1 min, and allowed to equilibrate for 2 h at room temperature.
(§5) GraphPad PRISM was used to perform non-linear regression (log(inhibitor) vs. response—Variable slope (four parameters)), plot dose-response curves, and calculate IC50 values.
(§6) This assay was generally conducted in the same manner as the CoraFluor-1-Halo format with minor differences. […] Each well was supplemented with 1 nM CoraFluor-1-Pfp-labeled anti-His6 antibody before the 2 h incubation.
(§7) TR-FRET measurements were acquired in kinetic mode (1 read every ˜45 s) for at least 10 min.

PfcProRS = molecular target: T2, PfcProRS (Plasmodium falciparum, UniProt Q8I5R7); assay: biochemical; format: binding
T2 construct: made in house; host or cells: SoluBL-21 E. coli
Method: as §1, §2, §3, §4, §5, §6, §7

[1] = tested on: halofuginone-induced P. falciparum (elevated proline homeostasis); assay: P. falciparum asexual blood stage growth assay, halofuginone-induced parasites; conditions: for EC50: Plasmodium falciparum, DD2, 72 h, read-out: Dd2 (EC50 [nM]) Halofuginone-induced; for percent growth at 10 μM: halofuginone-induced, shown because compound had <50% growth inhibition
BRD4 in MCF7 cells = molecular target: T3, BRD4 in MCF7 cells (Homo sapiens, UniProt O60885); assay: TR-FRET BRD4 quantification after degrader treatment, MCF7 cells; format: cell-based; conditions: for rescue of CS-JQ1-mediated BRD4 degradation: 250 nM CS-JQ1, 1 μM rescue compound or 10 μM JQ1; for rescue of dBET6-induced BRD4 degradation: 250 nM dBET6, 1 μM rescue compound or 10 μM JQ1, 5 h
T3 construct: TR-FRET-based quantification of BRD4 levels in unmodified cell lines after degrader treatment; endogenous in cells; host or cells: MCF7
Method: Cells were incubated for 5 h at 37° C. and 5% CO2 then media was replaced with pre-warmed cell culture medium (1 mL/well) and residual test compound was washed out for 1 h at 37° C. and 5% CO2. After, media was aspirated and cells were washed with PBS (2 mL/well), followed by the addition of ice-cold lysis buffer (200 μL/well). The plate was shaken at 200 rpm on an orbital shaker (IKA KS 260 basic) for 10 min, then lysate was transferred to 1.5 mL Eppendorf tubes and further incubated with slow, end-over-end mixing for 10 min at 4° C. […] TR-FRET ratios were background-subtracted from wells containing lysis buffer, 0.5 mg/mL BSA, and detection mix, then normalized to total protein concentration. The average TR-FRET intensity was normalized to DMSO for each biological replicate before being analyzed in Prism 9. […] Cell treatment, lysate preparation and TR-FRET analysis was performed as described above.

BRD4 in MDA-MB-231 cells = molecular target: T4, BRD4 in MDA-MB-231 cells (Homo sapiens, UniProt O60885); assay: TR-FRET BRD4 quantification after degrader treatment, MDA-MB-231 cells; format: cell-based; conditions: for rescue of CS-JQ1-mediated BRD4 degradation: 250 nM CS-JQ1, 1 μM rescue compound or 10 μM JQ1; for rescue of dBET6-induced BRD4 degradation: 250 nM dBET6, 1 μM rescue compound or 10 μM JQ1, 5 h
T4 construct: TR-FRET-based quantification of BRD4 levels in unmodified cell lines after degrader treatment; endogenous in cells; host or cells: MDA-MB-231
Method: Cells were incubated for 5 h at 37° C. and 5% CO2 then media was replaced with pre-warmed cell culture medium (1 mL/well) and residual test compound was washed out for 1 h at 37° C. and 5% CO2. After, media was aspirated and cells were washed with PBS (2 mL/well), followed by the addition of ice-cold lysis buffer (200 μL/well). The plate was shaken at 200 rpm on an orbital shaker (IKA KS 260 basic) for 10 min, then lysate was transferred to 1.5 mL Eppendorf tubes and further incubated with slow, end-over-end mixing for 10 min at 4° C. […] TR-FRET ratios were background-subtracted from wells containing lysis buffer, 0.5 mg/mL BSA, and detection mix, then normalized to total protein concentration. The average TR-FRET intensity was normalized to DMSO for each biological replicate before being analyzed in Prism 9.
Cells were incubated for 5 h at 37° C. and 5% CO2 then media was replaced with pre-warmed cell culture medium (150 μL/well) and residual test compound was washed out for 1 h at 37° C. and 5% CO2. After, media was aspirated and cells were washed with PBS (200 μL/well), followed by the addition of ice-cold lysis buffer (60 L/well). […] Optionally, after TR-FRET measurements, 5 μL/well of CellTiter-Glo 2.0 reagent (Promega G9241) was added to the wells of the 384-well plate and allowed to equilibrate for 10 minutes before luminescence intensity was recorded on a Tecan SPARK plate reader (luminescence module, no attenuation, 250 ms integration time, output Counts/s). TR-FRET ratios were background-subtracted from wells containing lysis buffer, 0.5 mg/mL BSA, and detection mix.

Keap1 (His/GST) [2] = molecular target: T5, Keap1 (His/GST) (Homo sapiens, UniProt Q14145); assay: biochemical
[3] = molecular target: T6, WT Keap1 (tag-free, full-length) (Homo sapiens, UniProt Q14145); assay: biochemical
[4] = molecular target: T6, WT Keap1 (tag-free, full-length); assay: biochemical; conditions: read-out: Assay 1: % at 100
Keap1 (His/GST) [5] = molecular target: T5, Keap1 (His/GST); assay: Keap1 TR-FRET Assay 3 (CDDO-FITC/Tb-Anti-6xHis); format: binding
[6] = Plasmodium falciparum, DD2, 72 h
[7] = substrate condition not given, read-out: HsProRS KD
[8] = PfcProRS KD, substrate condition not given
[9] = dose-titration of ATP and proline against tracer MAT379, read-out: PfcProRS KD of substrates
[10] = dose-titration of tracer on HT-HsProRS, read-out: HsProRS KD of tracers
[11] = absence of substrates, read-out: HsProRS (KD [nM]) −
[12] = read-out: HsProRS (KD [nM]) +proline, 100 μM proline
[13] = PfcProRS (KD [nM]) +proline, 100 μM proline
[14] = PfcProRS (KD [nM]) −, absence of substrates

T2 sequence (Q8I5R7 249-746): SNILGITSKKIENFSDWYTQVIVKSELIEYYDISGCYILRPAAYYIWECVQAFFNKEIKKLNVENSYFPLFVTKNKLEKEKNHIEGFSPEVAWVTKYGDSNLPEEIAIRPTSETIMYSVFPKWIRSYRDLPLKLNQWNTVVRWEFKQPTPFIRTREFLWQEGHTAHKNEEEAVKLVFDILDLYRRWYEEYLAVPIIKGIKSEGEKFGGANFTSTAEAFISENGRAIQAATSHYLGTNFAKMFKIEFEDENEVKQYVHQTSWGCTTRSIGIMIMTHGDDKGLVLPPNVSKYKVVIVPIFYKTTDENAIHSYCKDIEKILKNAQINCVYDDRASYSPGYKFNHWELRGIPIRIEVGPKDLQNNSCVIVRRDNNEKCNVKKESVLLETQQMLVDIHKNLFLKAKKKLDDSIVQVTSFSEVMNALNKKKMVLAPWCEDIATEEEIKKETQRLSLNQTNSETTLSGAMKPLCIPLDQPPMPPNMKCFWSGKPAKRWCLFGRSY
T6 sequence (Q14145 whole entry): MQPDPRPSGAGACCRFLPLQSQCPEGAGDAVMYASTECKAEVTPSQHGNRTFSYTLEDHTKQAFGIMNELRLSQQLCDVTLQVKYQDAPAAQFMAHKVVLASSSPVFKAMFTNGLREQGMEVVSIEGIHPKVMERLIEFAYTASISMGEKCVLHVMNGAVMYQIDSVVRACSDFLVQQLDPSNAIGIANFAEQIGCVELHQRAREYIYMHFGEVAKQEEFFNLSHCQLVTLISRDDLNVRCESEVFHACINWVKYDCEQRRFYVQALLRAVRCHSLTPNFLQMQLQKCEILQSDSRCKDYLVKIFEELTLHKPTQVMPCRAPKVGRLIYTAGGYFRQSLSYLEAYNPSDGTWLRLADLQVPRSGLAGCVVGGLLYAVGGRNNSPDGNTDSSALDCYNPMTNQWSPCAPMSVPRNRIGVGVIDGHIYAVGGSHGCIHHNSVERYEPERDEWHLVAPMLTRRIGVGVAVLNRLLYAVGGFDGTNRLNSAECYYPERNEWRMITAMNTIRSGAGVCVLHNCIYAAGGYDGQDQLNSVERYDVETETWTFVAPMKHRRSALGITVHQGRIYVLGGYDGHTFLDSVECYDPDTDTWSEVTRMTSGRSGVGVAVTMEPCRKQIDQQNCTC
T5 sequence (Q14145 whole entry): as above

## Nc1ncnc2c1ncn2[C@@H]1O[C@H](CNS(=O)(=O)NC(=O)[C@@H]2CCCN2)[C@@H](O)[C@H]1O [ProSNA, (S)-N-(N-(((2R,3S,4R,5R)-5-(6-amino-9H-purin-9-yl)-3,4-dihydroxytetrahydrofuran-2-yl)methyl)sulfamoyl)pyrrolidine-2-carboxamide]
P. falciparum Dd2-2D4; [6]
  EC50: 172 nM
HsProRS; [7]
  Kd: < 1 nM
PfcProRS; [8]
  Kd: < 1 nM

## O=C(O)[C@@H]1CCCN1 [proline]
HsProRS; read-out: HsProRS KD of proline, competition with MAT379
  Kd: 67100 nM
PfcProRS; [9]
  Kd: 457000 nM

## O=C(CCCCCNC(=S)Nc1ccc(-c2c3ccc(=O)cc-3oc3cc(O)ccc23)c(C(=O)O)c1)NC1CCN(C(=O)Nc2nccnc2C(=O)NC2Cc3ccccc3C2)CC1 [MAT379]
HsProRS; [10]
  Kd: 1700 nM
HsProRS
  fold less tightly bound to HT-HsProRS relative to HT-PfcProRS: 17 fold and > 15 fold
PfcProRS; 10-fold dilution of 100 nM HT-PfcProRS and 560 nM MAT379, read-out: first-order dissociation rate constant (koff)
  koff: < 0.00267 s⁻¹
PfcProRS; absence of substrates, read-out: PfcProRS (KD [nM]) −
  Kd: 100 nM

## Nc1ncnc2c1ncn2[C@@H]1O[C@H](COS(=O)(=O)NC(=O)[C@@H]2CCCN2)[C@@H](O)[C@H]1O [ProSA, prolyl-sulfamoyl adenosine, reference compound]
P. falciparum Dd2-2D4; wild-type Dd2-2D4, 72 h growth
  EC50: 151 nM

## O=C(NC1Cc2ccccc2C1)c1nccnc1NC(=O)N1CCC(CNC(=O)[C@@H]2CCCN2)CC1 [MAT345, (S)-N-(2,3-dihydro-1H-inden-2-y)-3-(4-((pyrrolidine-2-carboxamido)methyl)piperidine-1-carboxamido)pyrazine-2-carboxamide]
P. falciparum Dd2-2D4; [6]
  EC50: 249 nM
HsProRS; [11]
  Kd: 140 nM
HsProRS; [12]
  Kd: 282 nM
[1]
  EC50: 7210 nM
PfcProRS; [13]
  Kd: 35.9 nM
PfcProRS; [14]
  Kd: 39.8 nM

## O=C(CCCCCNC(=S)Nc1ccc(C(=O)O)c(-c2c3ccc(=O)cc-3oc3cc(O)ccc23)c1)NCC1CCN(C(=O)Nc2nccnc2C(=O)NC2Cc3ccccc3C2)CC1 [MAT425, 4-(3-(6-(((1-((3-((2,3-dihydro-1H-inden-2-yl)carbamoyl)pyrazin-2-yl)carbamoyl)piperidin-4-yl)methyl)amino)-6-oxohexyl)thioureido)-2-(6-hydroxy-3-oxo-3H-xanthen-9-yl)benzoic acid]
HsProRS; [10]
  Kd: > 10000 nM
HsProRS
  fold less tightly bound to HT-HsProRS relative to HT-PfcProRS: > 50 fold
PfcProRS; [14]
  Kd: 199 nM

## NS(=O)(=O)OC[C@@H]1C[C@@H](n2ccc3c(N[C@H]4CCc5ccccc54)ncnc32)C[C@@H]1O [MLN4924]
BRD4 in MCF7 cells
  rescue of CS-JQ1-mediated BRD4 degradation: substantially rescued
  rescue of dBET6-induced BRD4 degradation: attenuated
BRD4 in MDA-MB-231 cells
  rescue of CS-JQ1-mediated BRD4 degradation: substantially rescued
  rescue of dBET6-induced BRD4 degradation: attenuated

## CC(C)(C)OC(=O)N1CCC[C@H]1C(=O)NCC1CCN(C(=O)Nc2nccnc2C(=O)NC2Cc3ccccc3C2)CC1 [Compound 32, tert-butyl (S)-2-(((1-((3-((2,3-dihydro-1H-inden-2-yl)Carbamoyl)pyrazin-2-yl)carbamoyl)piperidin-4-yl)methyl)carbamoyl)pyrrolidine-1-carboxylate]
P. falciparum Dd2-2D4; [6]
  EC50: 63.2 nM
HsProRS; [11]
  Kd: 72.1 nM
HsProRS; [12]
  Kd: 270 nM
[1]
  EC50: 1530 nM
PfcProRS; [13]
  Kd: 5.35 nM
PfcProRS; [14]
  Kd: 6.67 nM

## CC(C)(C)OC(=O)N1CCC[C@H]1C(=O)NC1CCN(C(=O)Nc2nccnc2C(=O)NC2Cc3ccccc3C2)CC1 [Compound 31, tert-butyl (S)-2-((1-((3-((2,3-dihydro-1H-inden-2-yl)carbamoyl)pyrazin-2-yl)carbamoyl)piperidin-4-yl)carbamoyl)pyrrolidine-1-carboxylate]
P. falciparum Dd2-2D4
  percent growth at 10 μM: 102%†
HsProRS
  Kd: > 5000 nM
[1]
  percent growth at 10 μM: 98%†
PfcProRS; [13]
  Kd: 1990 nM
PfcProRS; [14]
  Kd: 2300 nM

## NCCOCCOCCCCCCN(C[C@H]1O[C@@H](n2cnc3c(N)ncnc32)[C@H](O)[C@@H]1O)S(=O)(=O)NC(=O)[C@@H]1CCCN1 [MAT556, (S)-N-(N-(((2R,3S,4R,5R)-5-(6-amino-9H-purin-9-yl)-3,4-dihydroxytetrahydrofuran-2-yl)methyl)-N-(6-(2-(2-aminoethoxy)ethoxy)hexyl)sulfamoyl)pyrrolidine-2-carboxamide]
HsProRS; [7]
  Kd: 33.7 nM
PfcProRS; [8]
  Kd: 195 nM

## O=C(CCCCCNC(=S)Nc1ccc(-c2c3ccc(=O)cc-3oc3cc(O)ccc23)c(C(=O)O)c1)NCCCCCC(=O)NC1CCN(C(=O)Nc2nccnc2C(=O)NC2Cc3ccccc3C2)CC1 [MAT422]
HsProRS; [10]
  Kd: > 4000 nM
PfcProRS; KD, PfcProRS of alternative tracer, tracer binding, conditions not stated
  Kd: 1280 nM

## NS(=O)(=O)OC[C@H]1C[C@@H](Nc2ccnc3cc(-c4cccc(SC(F)(F)F)c4)nn23)[C@H](O)[C@@H]1O [MLN7243]
BRD4 in MCF7 cells
  rescue of CS-JQ1-mediated BRD4 degradation: substantially rescued
  rescue of dBET6-induced BRD4 degradation: attenuated
BRD4 in MDA-MB-231 cells
  rescue of CS-JQ1-mediated BRD4 degradation: substantially rescued
  rescue of dBET6-induced BRD4 degradation: attenuated

## CC(C)C[C@H](NC(=O)[C@H](Cc1ccccc1)NC(=O)c1cnccn1)B(O)O [bortezomib]
BRD4 in MCF7 cells
  rescue of CS-JQ1-mediated BRD4 degradation: substantially rescued
  rescue of dBET6-induced BRD4 degradation: attenuated
BRD4 in MDA-MB-231 cells
  rescue of CS-JQ1-mediated BRD4 degradation: substantially rescued
  rescue of dBET6-induced BRD4 degradation: attenuated

## O=C(CC1NCCCC1O)Cn1cnc2cc(Br)c(Cl)cc2c1=O (stereo not drawn) [halofuginone, reference compound]
PfcProRS; 500 μM ATP vs 0 μM ATP
  fold increased affinity in the presence of ATP: > 6,000 fold

## COC(=O)/C=C/C(=O)OC [DMF, dimethyl fumarate]
Keap1 (His/GST) [2]
  IC50: 266 µM
[3]
  IC50: 129 µM
  Kd: 67.4 µM
[4]
  inhibition at 100 µM: < 5%
Keap1 (His/GST) [5]
  IC50: 64.8 µM

## O=C(NC1Cc2ccccc2C1)c1nccnc1NC(=O)N1CCC(NC(=O)[C@@H]2CCCN2)CC1 [MAT334, (S)-N-(2,3-dihydro-1H-inden-2-yl)-3-(4-(pyrrolidine-2-carboxamido)piperidine-1-carboxamido)pyrazine-2-carboxamide]
P. falciparum Dd2-2D4
  percent growth at 10 μM: 76%†
HsProRS; [12]
  Kd: 2130 nM
[1]
  percent growth at 10 μM: 59%†
PfcProRS; [13]
  Kd: 660 nM
PfcProRS; [14]
  Kd: 1380 nM

## CC[C@H](C)[C@H](N)C(=O)NS(=O)(=O)NC[C@H]1O[C@@H](n2cnc3c(N)ncnc32)[C@H](O)[C@@H]1O [IleSNA]
P. falciparum Dd2-2D4; Plasmodium falciparum, DD2, read-out: ABS IC50
  IC50: 0.00119 µM

## CC(C)(C)OC(=O)NC1CCN(C(=O)Nc2nccnc2C(=O)NC2Cc3ccccc3C2)CC1 [Compound 7, tert-butyl (1-((3-((2,3-dihydro-1H-inden-2-yl)carbamoyl)pyrazin-2-yl)carbamoyl)piperidin-4-yl)carbamate]
P. falciparum Dd2-2D4; [6]
  EC50: 90.6 nM
[1]
  EC50: 2170 nM
PfcProRS; [13]
  Kd: 13.2 nM
PfcProRS; [14]
  Kd: 13.1 nM

## Nc1ncnc2c1ncn2[C@@H]1O[C@H](COP(=O)(O)OP(=O)(O)OP(=O)(O)O)[C@@H](O)[C@H]1O [ATP]
PfcProRS; [9]
  Kd: 892000 nM

## COC(=O)[C@]12CCC(C)(C)C[C@H]1[C@H]1C(=O)C=C3[C@@]4(C)C=C(C#N)C(=O)C(C)(C)[C@@H]4CC[C@@]3(C)[C@]1(C)CC2 [CDDO-Me, bardoxolone methyl]
Keap1 (His/GST) [2]
  IC50: 103 µM
[3]
  IC50: 0.024 µM
  Kd: 0.013 µM
[4]
  inhibition at 100 µM: < 10%
Keap1 (His/GST) [5]
  IC50: 0.011 µM

## CC1(C)CC[C@]2(C(=O)O)CC[C@]3(C)[C@H](C(=O)C=C4[C@@]5(C)C=C(C#N)C(=O)C(C)(C)[C@@H]5CC[C@]43C)[C@@H]2C1 [CDDO, (4aS,6aR,6bS,8aR,12aS,14aR,14bS)-11-cyano-2,2,6a,6b,9,9,12a-heptamethyl-10,14.dioxo-1,3,4,5,6,6a,6b,7,8,8a,9,10,12a,14,14a,14b-hexadecahydropicene-4a(2H)-carboxylic acid]
Keap1 (His/GST) [2]
  IC50: 224 µM
Keap1 (His/GST) [5]
  IC50: 0.004 µM

## COC1=CC(=O)C(O)=C/C1=C\C=C\c1ccccc1 [OBT, obtusaquinone]
Keap1 (His/GST) [2]
  IC50: 24.6 µM
Keap1 (His/GST) [5]
  IC50: 3.39 µM

Source: US20250093263A1, “FRET-BASED ASSAYS” (The General Hospital Corporation, priority 2021, published 2025)
